Assay results taken from patent US20070166414A1, “METHOD FOR ENHANCING TAMOXIFEN EFFICACY AS A CANCER THERAPEUTIC” (priority 2006, published 2007).
“Also recorded” adds a separate entry of the source.

What was measured:
[1] = tested on: 8-oxo-deoxyguanosine (8-oxo-dG); assay: LC-UV-MS-MS quantification of 8-oxo-dG (oxidative DNA damage) in normal mammary glands; format: in vivo, female Sprague-Dawley rats; conditions: in words, vs +control (DMBA); FIG. 3
Protocol: DNA Hydrolysis. DNA was extracted from normal mammary tissue from six different rats from each group and dissolved in water at ˜2 mg/mL. Aliquots (50-μL) containing ˜100 μg of DNA were mixed with 50 μL of buffer (50 mM ammonium acetate, 0.2 mM ZnCl2, pH 5.3), 10 μL of nuclease P1 (0.4 unit/μL), and 8 μL of alkaline phosphatase (1 unit/μL in 10 mM Tris pH 7.4) and incubated at 37° C. for 30 minutes. […] Bedford, Mass. USA). The solution was centrifuged for 15 minutes at 12,000 rpm and 4° C. just before LC-UV-MS-MS analysis. LC-UV-MS-MS Quantification of Oxidized Nucleosides. The HPLC system consisted of a ThermoFinnigan (San Jose, Calif. USA) Surveyor MS pump coupled with an autosampler, a PDA detector and a YMC (Wilmington, N.C. USA) ODS-AQ C18 column (2.0×250 mm, 5 μm), and guard column (4.0×20 mm). Absorbance detection at 240-290 nm was used for on-line HPLC quantification of dG and dC in the DNA hydrolysate, and a standard curve was prepared using standard solutions of dG and dC in the initial mobile phase. […] For DNA oxidation, the solvent system consisted of water/methanol 90:10 (v/v) at the start point and a linear gradient from 10 to 25% (v/v) methanol over 0-25 min. […] Selected reaction monitoring (SRM) was carried out using a TSQ Quantum triple quadruple mass spectrometer equipped with negative ion (for DNA oxidation) electrospray ionisation. Nitrogen was used as the sheath gas and auxiliary gas at 25 and 10 arbitrary units, respectively. The spray voltage was […]. Collision-induced dissociation (CID) was carried out using argon at 1.0-1.5 mTorr with the collision energy of 10-20 V. The span time per ion channel was 0.5 seconds during SRM. For 8-oxo-deoxyguanosine (8-oxo-dG), m/z 282>192 was selected as SRM (m/z 297>204 for the isotopically labelled internal standard). For 5-MedC, m/z 242>126 was selected as SRM (m/z 245>129 for the isotopically labelled internal standard).

[2] = tested on: endometrium DNA damage; assay: DNA damage in endometrium by comet assay; format: in vivo, female rats; conditions: diet 28 or 185 days, vs basal diet
Protocol: (§1) Four groups of female rats were fed the basal AIN-76A diet supplemented with: 1) vehicle (control), (2) tamoxifen (0.125 mg/Kg), (3) daidzein (140 mg/Kg), (4) tamoxifen (0.125 mg/Kg) plus daidzein (140 mg/Kg) combination. Rats were sacrificed at either 28 days (short term exposure) or 185 days (long term exposure) after diet initiation, and the endometrium was removed and processed for immunohistochemical and biochemical evaluations.

[3] = LC-MS analysis of serum isoflavone levels; design: species or system female rats; conditions: rat, in vivo
Protocol: LC-MS analysis of isoflavone levels. Serum isoflavone levels of animals on the diets for four weeks without DMBA treatment were analysed. Blood was collected by orbital bleeding. Serum (400 μL) from each sample was transferred into a 2-mL Eppendorf tube. To each tube, 100 μL of 1 M (pH 5.0) buffer was added followed by vortex mixing, then 40 μL sulphatase (50 mg/mL, Sigma # S-3009) enzyme solution was added. After shaking, the mixture was incubated overnight in a 37° C. water bath (>17 h). The enzymatic hydrolysis was stopped by adding 1 mL ice-cold ethanol/acetonitrile (1:1; v/v), mixed and centrifuged at 4° C. for 15 minutes (10,000 rpm). The supernatant was removed and evaporated to dryness under vacuum. The resulting residue was reconstituted with 150 μL internal standard solution, and three aliquots (15 μL each) were analysed using LC-MS (HP 1100 LC-MS D) over an Xterra RP-18 column (2.1×100 mm, 3.5 μm). The mobile phase was 0.1% (v/v) formic acid followed by acetonitrile (containing 0.1% (v/v) formic acid). Elution was at 200 μL/min. The MSD was operated in negative electrospray ionisation mode with selected ion monitoring of m/z 253 for daidzein and internal standard (chrysin), m/z 269 for genistein, and m/z 241 for equol. Three to four samples from each group were analysed and resulting values are mean± SD.

[4] = tested on: proliferating cell nuclear antigen (PCNA); assay: PCNA staining of endometrial tissue; format: in vivo, female rats; conditions: endometrium gland and stroma, diet 28 and 185 days, vs basal diet
Protocol: as §1

[5] = tested on: PTEN; assay: PTEN staining of endometrial tissue; format: in vivo, female rats; conditions: endometrium, diet 28 and 185 days
Protocol: as §1

[6] = tested on: DMBA-induced rat mammary carcinogenesis; assay: Chemoprevention study: DMBA-induced mammary tumors in rats fed experimental diets; conditions: for Survival (%): n=20; for Final tumor incidence: n=20, 114 days, * P<0.05, ** P<0.01 vs control (Fisher's exact test); for Latency (P-: P-value vs +control (DMBA) group, unpaired t-test; for Tumor burden (average tumor weight per group): in words, vs control (FIG. 2b)
Protocol: Chemoprevention Study. The diets were formulated by Harlan-Teklad (Madison, Wis. USA) to contain approximately the same amounts of protein, fat, and carbohydrates. The basal diet AIN-76A is free of soy products. The diets were also adjusted to contain similar amounts of methionine, cystine, and choline because these nutrients have been reported to affect mammary carcinogenesis. Daidzein and genistein were added in the basal diets as necessary (Table 1), at 140 and 105 mg/Kg of diet respectively. The selected isoflavone concentrations were based on the amounts present in the well-tolerated 16% (w/w) S PI diet (13). The tam oxifen dose of 0.125 mg/Kg diet was selected based on a previous study (24).
Virgin female Sprague-Dawley rats at 35 days of age were randomized by weight into 5 groups (20 rats per group) and fed basal AIN-76A diet. At 43 days of age, all but the control groups received basal diet supplemented with the appropriate test agents. After an additional week the animals received a single dose (12.5 mg) of DMBA intragastrically in sesame oil.
During the experimental period, the animals were weighed weekly. Palpation of mammary tumors began four weeks after animals received DMBA and continued until termination of the study. The date of appearance and location of every palpable tumor were recorded. Rats were observed daily to assess their general health. Rats were sacrificed by CO2 asphyxiation. Mammary tumors were coded by location, removed from the rat, and weighed. Sections of normal mammary tissue were also taken and either flash frozen in liquid nitrogen or formalin-fixed for paraffin embedding. The experiment and protocol was approved and performed in compliance with relevant laws and institutional guidelines according to the Animal Care Committee (01-142) and Animal Welfare Assurance (A3460.01) at the University of Illinois at Chicago.
Statistical analysis. A significant inhibition of tumor induction as achieved by administration of an inhibitor was defined as a statistically significant decrease (at 5% level) in tumor incidence, multiplicity, or latency period. Statistical comparison of tumor latency between groups was by unpaired t-test. The statistical significance of differences between mean tumor multiplicities was assessed using analysis of variance (ANOVA), and the Armitage'stest for trends in proportions (25). Tumor incidence rates were generated by the life table method, and compared by (one tailed) log-rank analysis (25).

[7] = tested on: implanted oestrogen-dependent MCF-7 cells; conditions: athymic mice; Cancer Research 62: 2474-2477; cited from earlier work
[8] = LC-MS analysis of serum isoflavone levels; format: in vivo, female rats; conditions: diet for four weeks, no DMBA; 3-4 rats per group; ± SEM
[9] = female, Sprague-Dawley, 4 weeks

Structure (SMILES)	8-oxo-dG levels (ratio 8-oxo-dG/dG) in mammary glands [1]	Mean serum level of DAI (daidzein) [3, 9] [ng/mL]	Mean serum level of Equol [3, 9] [ng/mL]	Mean serum level of GEN (genistein) [3, 9] [ng/mL]	Mean serum level of Equol [3]	Mean serum level of GEN (genistein) [3]	Survival (%) ([6]; DMBA-exposed rats on diet)	Final tumor incidence ([6]; DMBA-exposed rats on diet)	Latency (P- [6]	Tumor burden (average tumor weight per group) [6]	Mean body weight ([6]; rat, in vivo)	other results
O=c1c(-c2ccc(O)cc2)coc2cc(O)ccc12 [DAI, 7-hydroxy-3-(4-hydroxyphenyl)-4H-1-benzopyran-4-one]	suppressed the levels of 8-oxo-dG equal to those of the group never exposed to DMBA	3.6 ± 0.9	115.0 ± 20.6	1.2 ± 4.7	very high concentrations	very low levels	95	85	0.322	reduced tumor burden as effectively as tamoxifen	99.2	DNA damage (comet assay) ([2]; listed as Daidzein): no damaging effect; DNA damage (comet assay) ([2]; listed as diadzein): did not affect the level of DNA damage; PCNA expression ([4]; listed as daidzein): increased expression of PCNA; PCNA expression ([4]; listed as diadzein): increased PCNA; PTEN expression ([5]; listed as daidzein): reduction in PTEN expression; PTEN expression ([5]; listed as diadzein): reduced PTEN expression
O=c1c(-c2ccc(O)cc2)coc2cc(O)cc(O)c12 [GEN, genistein]	ineffective						95	85	0.326	ineffective		Effect on tamoxifen inhibition of growth of implanted MCF-7 cells [7]: negated the inhibitory effect of tamoxifen; Mean serum level of DAI (daidzein) [8]: very low levels; Mean serum level of Equol [8]: not detectable; Mean body weight ([6]; DMBA-exposed rats on diet, control = 100.0): 100.7
CC/C(=C(\c1ccccc1)c1ccc(OCCN(C)C)cc1)c1ccccc1 [TAM, tamoxifen]	ineffective	0.2 ± 0.0	0.0	0.8 ± 0.1	not detectable	very low levels	90	73*	0.013		94.4	DNA damage (comet assay) ([2]; listed as Tamoxifen): significantly increased DNA damage; DNA damage (comet assay) ([2]; listed as tamoxifen): increased DNA damage; Mean serum level of DAI (daidzein) [3]: very low levels; PCNA expression [4]: increased expression of PCNA; also recorded: increased proliferating cell nuclear antigen (PCNA) expression; PTEN expression [5]: reduction in PTEN expression; also recorded: reduced PTEN expression; Increase of tumor latency over the control value ([6]; compared to positive control): 46%
